Reference: patent US12209079B2 (GENERAL INCORPORATED ASSOCIATION PHARMA VALLEY PROJECT …, priority 2017, dated 2025)

What was measured:
Type in all cases: in vivo, mouse
[1] = test system: subcutaneous CT-26WT syngeneic graft of large intestine cancer; test: Drug efficacy test, combined use of compound 103 and anti-PD1 antibody, mice with subcutaneous CT-26WT syngeneic graft (Test Example 7); details: 40 mg/kg oral twice a day, combined with anti-PD1 antibody 200 μg/individual i.p.; Balb/c mice; FIG. 6
Protocol: Drug Efficacy Test on Combined Use of Compound 103 and Anti-PD1 Antibody Using Mice with Subcutaneous CT-26WT Syngeneic Graft of Large Intestine Cancer
5×10^5 cells of syngeneic large intestine cancer cell line CT26WT were subcutaneously transplanted to each of 6-week-old female Balb/c mice. The mice were divided into 3 groups each involving 8 individuals 10 days later when the average tumor size was 176 mm^3. The oral administration (40 mg/kg of compound 103 was administered twice a day at a 5-hour interval from days 1 to 5 and days 8 to 12), intravenous administration (5% glucose solution was administered once a day on days 1 and 8) and intraperitoneal administration (PBS and 200 μg/individual of an anti-PD1 antibody were administered once a day on days 1 and 8) of each agent were started. Then, the major axis and minor axis of subcutaneous tumor were measured three times a week using calipers, and a mean and standard error of the mean of the calculated volumes in each group were plotted. The calculation expression was Volume (mm^3)=[Width^2 (mm^2)×Length (mm)]/2. Compound 103 was suspended in 0.5% methyl cellulose.
• with the solid line: the 5% glucose solution and PBS, X with the dotted line: the 5% glucose solution and the anti-PD1 antibody, and ∘ with the solid line: compound 103 and the anti-PD1 antibody.

[2] = test system: subcutaneous CT-26WT syngeneic graft of large intestine cancer; test: Drug efficacy test, combined use with anti-PD-1 antibody, mice with subcutaneous CT-26WT syngeneic graft (Test Example 2); details: 40 mg/kg oral twice a day, combined with anti-PD-1 antibody 200 μg/individual i.p.; Balb/c mice; FIG. 1
Protocol: Drug Efficacy Test on Combined Use of IDO/TDO Inhibitor and Anti-PD-1 Antibody Using Mice with Subcutaneous CT-26WT Syngeneic Graft of Large Intestine Cancer
5×10^5 cells of syngeneic large intestine cancer cell line CT26WT were subcutaneously transplanted to each of 6-week-old female Balb/c mice. The mice were divided into 6 groups each involving 6 to 8 individuals 11 days later when the average tumor size was 212 mm^3. The oral administration (solvent for oral administration and 40 mg/kg each of epacadostat and compound 1 were administered twice a day at a 5-hour interval from days 1 to 5, days 8 to 12, and days 15 to 19) and intraperitoneal administration (PBS and 200 μg/individual of an anti-PD1 antibody were administered once a day on days 1, 4, 8, 11, 15, and 18) of each agent were started. Then, the major axis and minor axis of subcutaneous tumor were measured three times a week using calipers, and a mean and standard error of the mean of the calculated volumes in each group were plotted. The calculation expression was Volume (mm^3)=[Width^2 (mm^2)×Length (mm)]/2. The oral administration agent was dissolved in a solvent for oral administration of DMSO:PEG400:PBS=5:20:75. […]

[3] = test system: subcutaneous CT-26CL25 syngeneic graft of large intestine cancer; test: Drug efficacy test, combined use of compound 1 and oxaliplatin, mice with subcutaneous CT-26CL25 syngeneic graft (Test Example 3); details: 40 mg/kg oral twice a day, combined with oxaliplatin 10 mg/kg i.v.; Balb/c mice; FIG. 2
Protocol: Drug Efficacy Test on Combined Use of Compound 1 and Oxaliplatin Using Mice with Subcutaneous CT-26CL25 Syngeneic Graft of Large Intestine Cancer
5×10^5 cells of syngeneic large intestine cancer cell line CT26CL25 were subcutaneously transplanted to each of 8-week-old female Balb/c mice. The mice were divided into 4 groups each involving 8 individuals 10 days later when the average tumor size was 185 mm^3. The oral administration (solvent for oral administration and 40 mg/kg compound 1 were administered twice a day at a 5-hour interval from days 1 to 5 and days 8 to 12) and intravenous administration (5% glucose solution and 10 mg/kg oxaliplatin were administered once a day on days 1 and 8) of each agent were started. Then, the major axis and minor axis of subcutaneous tumor were measured three times a week using calipers, and a mean and standard error of the mean of the ratios of the calculated volumes to the volumes at the administration start day in each group were plotted. The calculation expression was Volume (mm^3)=[Width^2 (mm^2)×Length (mm)]/2. Compound 1 was dissolved in a solvent for oral administration of DMSO:PEG400:PBS=5:20:75.
∘: the solvent for oral administration and the 5% glucose solution, •: the solvent for oral administration and oxaliplatin, Δ: compound 1 and the 5% glucose solution, and ▴: compound 1 and oxaliplatin.

[4] = test system: subcutaneous CT-26WT syngeneic graft of large intestine cancer; test: Drug efficacy test, combined use of compound 29 or 38 and anti-PD1 antibody, mice with subcutaneous CT-26WT syngeneic graft (Test Example 6); details: 40 mg/kg oral twice a day, combined with anti-PD1 antibody 200 μg/individual i.p.; Balb/c mice; FIG. 5
Protocol: Drug Efficacy Test on Combined Use of Compound 29 or 38 and Anti-PD1 Antibody Using Mice with Subcutaneous CT-26WT Syngeneic Graft of Large Intestine Cancer
5×10^5 cells of syngeneic large intestine cancer cell line CT26WT were subcutaneously transplanted to each of 6-week-old female Balb/c mice. The mice were divided into 6 groups each involving 6 individuals 10 days later when the average tumor size was 250 mm^3. The oral administration (solvent for oral administration and 40 mg/kg each of compounds 29 and 38 were administered twice a day at a 5-hour interval from days 1 to 5 and days 8 to 12) and intraperitoneal administration (PBS and 200 μg/individual of an anti-PD1 antibody were administered once a day on days 1 and 8) of each agent were started. Then, the major axis and minor axis of subcutaneous tumor were measured three times a week using calipers, and a mean and standard error of the mean of the calculated volumes in each group were plotted. The calculation expression was Volume (mm^3)=[[…]×Length (mm)]/2. Compound 29 or 38 was suspended in 0.5% methyl cellulose as a solvent for oral administration. […]

Br.N#Cc1ccc(CNC(=O)c2cc(Br)ccc2CSC(=N)N)cc1 [Compound 103, 4-Bromo-2-((4-cyanobenzyl)carbamoyl)benzyl carbamimidothioate hydrobromide]
tumor growth (tumor volume) [1]: can suppress tumor growth

Cl.Cl.N=C(N)SCc1ccccc1CSC(=N)N [Compound 1, 1,2-phenylenebis(methylene) dicarbamimidothioate dihydrochloride]
tumor growth (tumor volume) [2]: can suppress tumor growth | tumor growth (ratio of tumor volume to start day) [3]: can suppress tumor growth

c1ccc(CSC2=NCN(CC3CCCCC3)CN2)c(CSC2=NCN(CC3CCCCC3)CN2)c1 [Compound 29, 1,2-bis(((5-(cyclohexylmethyl)-1,4,5,6-tetrahydro-1,3,5-triazin-2-yl)thio)methyl)benzene]
tumor growth (tumor volume) [4]: can suppress tumor growth
